# Data from US20240216395A1, “19-NOR C3,3-DISUBSTITUTED C21 -N-PYRAZOLYL STEROID FOR USE IN TREATING MAJOR DEPRESSIVE DISORDER AND […]” (priority 2021, published 2024).
# Test system: nondependent, recreational users of CNS depressants
# Experiment: Abuse potential study, dose selection phase: TEAEs
# Format: in vivo, human
# Experimental: After a screening period of up to 21 days, eligible participants were randomized 3:1 to receive single escalating doses of Compound (1) (60, 80, or 90 mg) or matching placebo in 3 separate cohorts; Compound (1) was administered during 4 days of inpatient administration (FIG. 30A). Sentinel dosing was employed for each cohort, with one participant randomized to receive Compound (1) and one to receive placebo on Day 1. The remaining 6 participants (Compound (1), 5; placebo, 1) were dosed approximately 24 hours later after monitoring the safety and tolerability endpoints. Dose-escalation cohorts were separated by at least 7 days. If a dose was not well tolerated based on the safety data, doses in subsequent cohorts were to be modified, and Compound (1) dose was not allowed to exceed 90 mg. Participants underwent a 1-day, follow-up visit 7 (±2) days after the end of the treatment and were not permitted to participate in the main study.
# For the first part, dose selection, endpoints included the observer-rated Modified Observer's Assessment of Alertness/Sedation (MOAA/S) scores along with safety and tolerability endpoints which included the Columbia-Suicide Severity Rating Scale (C-SSRS), frequency and severity of adverse events (AE) and serious adverse events (SAEs), and changes from baseline in clinical laboratory assessments, vital signs, and electrocardiogram (ECG).
# The dose selection safety set included all participants who received 1 dose of Compound (1). The main study qualification safety set included all participants who received ≥1 dose of alprazolam. For the treatment phase, the randomized set included all participants who were randomized and the safety set included all participants who received ≥1 dose of Compound (1) or alprazolam. The completer set included all participants in the randomized set who completed all treatment periods, had sufficient data for evaluation of the primary endpoint, and had ≥1 observation within 2 hours of Tmax for each treatment for Drug Liking VAS scores. […] The PK set included all participants in the treatment phase who received 1 dose of Compound (1) and had 1 PK sample after dosing.
compound,measurement,setting,value
"C[C@@]1(O)CC[C@H]2[C@H](CC[C@@H]3[C@@H]2CC[C@]2(C)[C@@H](C(=O)Cn4cc(C#N)cn4)CC[C@@H]32)C1 [Compound (1), 1-(2-((3R,5R,8R,9R,10S,13S,14S,17S)-3-hydroxy-3,13-dimethylhexadecahydro-1H-cyclopenta[a]phenanthren-17-yl)-2-oxoethyl)-1H-pyrazole-4-carbonitrile]",Any TEAE,60 mg (n = 6),5 (83.3) n (%)
same,Asthenopia (TEAE),60 mg (n = 6),0 n (%)
same,Blood bilirubin increased (TEAE),60 mg (n = 6),0 n (%)
same,Disturbance in attention (TEAE),60 mg (n = 6),0 n (%)
same,Dizziness postural (TEAE),60 mg (n = 6),1 (16.7) n (%)
same,Euphoric mood (TEAE),60 mg (n = 6),0 n (%)
same,Feeling abnormal (TEAE),60 mg (n = 6),0 n (%)
same,Feeling hot (TEAE),60 mg (n = 6),0 n (%)
same,Feeling of relaxation (TEAE),60 mg (n = 6),0 n (%)
same,Headache (TEAE),60 mg (n = 6),1 (16.7) n (%)
same,Hunger (TEAE),60 mg (n = 6),0 n (%)
same,Hyperhidrosis (TEAE),60 mg (n = 6),0 n (%)
same,Irritability (TEAE),60 mg (n = 6),0 n (%)
same,Lacrimation increased (TEAE),60 mg (n = 6),0 n (%)
same,Mild TEAE,60 mg (n = 6),5 (83.3) n (%)
same,Moderate TEAE,60 mg (n = 6),0 n (%)
same,Orthostatic HR response increase (TEAE),60 mg (n = 6),1 (16.7) n (%)
same,Paresthesia (TEAE),60 mg (n = 6),0 n (%)
same,Somnolence (TEAE),60 mg (n = 6),4 (66.7) n (%)
same,Toothache (TEAE),60 mg (n = 6),0 n (%)
same,Tremor (TEAE),60 mg (n = 6),0 n (%)
same,Vision blurred (TEAE),60 mg (n = 6),0 n (%)
same,Yawning (TEAE),60 mg (n = 6),0 n (%)
same,Any TEAE,80 mg (n = 6),5 (83.3) n (%)
same,Asthenopia (TEAE),80 mg (n = 6),1 (16.7) n (%)
same,Blood bilirubin increased (TEAE),80 mg (n = 6),0 n (%)
same,Disturbance in attention (TEAE),80 mg (n = 6),1 (16.7) n (%)
same,Dizziness postural (TEAE),80 mg (n = 6),2 (33.3) n (%)
same,Euphoric mood (TEAE),80 mg (n = 6),1 (16.7) n (%)
same,Feeling abnormal (TEAE),80 mg (n = 6),0 n (%)
same,Feeling hot (TEAE),80 mg (n = 6),0 n (%)
same,Feeling of relaxation (TEAE),80 mg (n = 6),2 (33.3) n (%)
same,Headache (TEAE),80 mg (n = 6),0 n (%)
same,Hunger (TEAE),80 mg (n = 6),0 n (%)
same,Hyperhidrosis (TEAE),80 mg (n = 6),0 n (%)
same,Irritability (TEAE),80 mg (n = 6),1 (16.7) n (%)
same,Lacrimation increased (TEAE),80 mg (n = 6),0 n (%)
same,Mild TEAE,80 mg (n = 6),5 (83.3) n (%)
same,Moderate TEAE,80 mg (n = 6),0 n (%)
same,Orthostatic HR response increase (TEAE),80 mg (n = 6),0 n (%)
same,Paresthesia (TEAE),80 mg (n = 6),1 (16.7) n (%)
same,Somnolence (TEAE),80 mg (n = 6),5 (83.3) n (%)
same,Toothache (TEAE),80 mg (n = 6),0 n (%)
same,Tremor (TEAE),80 mg (n = 6),0 n (%)
same,Vision blurred (TEAE),80 mg (n = 6),1 (16.7) n (%)
same,Yawning (TEAE),80 mg (n = 6),0 n (%)
same,Moderate TEAEs,90 mg,one instance of somnolence
same,Any TEAE,90 mg (n = 6),6 (100) n (%)
same,Asthenopia (TEAE),90 mg (n = 6),0 n (%)
same,Blood bilirubin increased (TEAE),90 mg (n = 6),0 n (%)
same,Disturbance in attention (TEAE),90 mg (n = 6),0 n (%)
same,Dizziness postural (TEAE),90 mg (n = 6),0 n (%)
same,Euphoric mood (TEAE),90 mg (n = 6),4 (66.7) n (%)
same,Feeling abnormal (TEAE),90 mg (n = 6),1 (16.7) n (%)
same,Feeling hot (TEAE),90 mg (n = 6),0 n (%)
same,Feeling of relaxation (TEAE),90 mg (n = 6),1 (16.7) n (%)
same,Headache (TEAE),90 mg (n = 6),0 n (%)
same,Hunger (TEAE),90 mg (n = 6),0 n (%)
same,Hyperhidrosis (TEAE),90 mg (n = 6),1 (16.7) n (%)
same,Irritability (TEAE),90 mg (n = 6),1 (16.7) n (%)
same,Lacrimation increased (TEAE),90 mg (n = 6),0 n (%)
same,Mild TEAE,90 mg (n = 6),5 (83.3) n (%)
same,Moderate TEAE,90 mg (n = 6),1 (16.7) n (%)
same,Orthostatic HR response increase (TEAE),90 mg (n = 6),0 n (%)
same,Paresthesia (TEAE),90 mg (n = 6),0 n (%)
same,Somnolence (TEAE),90 mg (n = 6),4 (66.7) n (%)
same,Toothache (TEAE),90 mg (n = 6),0 n (%)
same,Tremor (TEAE),90 mg (n = 6),1 (16.7) n (%)
same,Vision blurred (TEAE),90 mg (n = 6),0 n (%)
same,Yawning (TEAE),90 mg (n = 6),1 (16.7) n (%)
same,Blood bilirubin increased (TEAE),All doses (n = 18),0 n
same,Feeling hot (TEAE),All doses (n = 18),0 n
same,Hunger (TEAE),All doses (n = 18),0 n
same,Lacrimation increased (TEAE),All doses (n = 18),0 n
same,Toothache (TEAE),All doses (n = 18),0 n
